Key:
vitamin D receptor = biological target: T1, vitamin D receptor (Sus scrofa, UniProt A3RGC1); conditions: percentage activity (at 50% of the dose response) in comparison with 1α,25(OH)2D3 (=100%)
T1 sequence (A3RGC1 1-427): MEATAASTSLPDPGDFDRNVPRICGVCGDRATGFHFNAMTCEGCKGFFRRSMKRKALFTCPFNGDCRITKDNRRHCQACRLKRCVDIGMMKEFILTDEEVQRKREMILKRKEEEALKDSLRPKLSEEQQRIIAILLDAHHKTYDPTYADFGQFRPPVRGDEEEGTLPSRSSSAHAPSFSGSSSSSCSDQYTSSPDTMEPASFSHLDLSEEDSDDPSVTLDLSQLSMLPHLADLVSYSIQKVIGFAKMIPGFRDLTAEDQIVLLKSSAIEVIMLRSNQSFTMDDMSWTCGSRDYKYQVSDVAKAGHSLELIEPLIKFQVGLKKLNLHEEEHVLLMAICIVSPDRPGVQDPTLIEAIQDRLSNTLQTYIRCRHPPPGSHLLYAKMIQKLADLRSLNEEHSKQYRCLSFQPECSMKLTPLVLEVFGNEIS
Protocol: The incubation was performed at 4° C. for 20 h and phase separation was obtained by addition of dextran-coated charcoal.

[1] = for IN VIVO STUDIES Osteocalcin serum: mice, daily intraperitoneal injection 7 consecutive days, percentage activity vs 1α,25(OH)2D3 (=100%)
Protocol: Eight weeks old, male NMRI mice were obtained from the Proefdierencentrum of Leuven (Belgium) and fed a vitamin D-replete diet (0.2% calcium, 1% phosphate, 2000 U vitamin D/kg; Hope Farms, Woerden, The Netherlands). […] The control group was injected with vehicle (arachis oil). The average weight of each group of 6 mice was determined at the beginning and at the end of the experiment. The following parameters were evaluated: serum calcium, serum osteocalcin, femur calcium and urinary calcium. Serum and urinary calcium were measured by a microcolorimetric assay (Sigma, St. Louis, Mo.). Femurs were removed and femur calcium content was measured in HCl-dissolved bone ash (obtained by heating for 24 h in an oven at 100° C.), using the same technique as for serum and urinary calcium.

hDBP = biological target: T2, hDBP (Homo sapiens, UniProt P02774); test: Affinity for human DBP: competition with [3H]1α,25(OH)2D3; assay type: binding; conditions: percentage activity (at 50% of the dose response) in comparison with 1α,25(OH)2D3 (=100%)
T2 sequence (P02774 17-474): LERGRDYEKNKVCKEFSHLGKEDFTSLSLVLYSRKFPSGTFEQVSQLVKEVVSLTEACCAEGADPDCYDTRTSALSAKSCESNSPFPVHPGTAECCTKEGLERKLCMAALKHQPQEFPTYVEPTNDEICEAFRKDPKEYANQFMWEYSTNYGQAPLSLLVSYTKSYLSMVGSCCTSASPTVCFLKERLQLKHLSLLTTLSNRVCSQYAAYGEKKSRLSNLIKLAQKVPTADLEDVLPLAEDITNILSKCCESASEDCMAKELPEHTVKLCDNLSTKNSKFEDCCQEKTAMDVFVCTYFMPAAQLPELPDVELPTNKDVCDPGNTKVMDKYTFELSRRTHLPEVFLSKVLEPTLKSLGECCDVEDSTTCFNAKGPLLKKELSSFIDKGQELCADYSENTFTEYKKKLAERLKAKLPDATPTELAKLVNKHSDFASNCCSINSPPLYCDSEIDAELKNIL
Protocol: Phase separation was then obtained by the addition of 0.5 ml of cold dextran-coated charcoal.

HL-60 cells = test: HL-60 cell differentiation (NBT reduction assay); assay type: cell-based; conditions: for prodifferentiating effect (in words): HL 60 cells; for IN VITRO STUDIES HL 60: potency to differentiate HL 60 cells, percentage activity vs 1α,25(OH)2D3 (=100%)
Protocol: To evaluate the effect on cell differentiation HL-60 cells were seeded at 4×10^4 cells/ml in 25 cm^2 Falcon tissue chambers using RPMI 1640 medium supplemented with 20% FCS and gentamycin (50 μg/ml) in a final volume of 5 ml. Cultures were maintained at 37° C. in a humidified atmosphere of 5% CO2 in air. […] After 4 days of culture, the dishes were shaken to lose adherent cells. Cells were washed twice in RPMI, counted and assayed for differentiation markers (NBT reduction assay). Superoxide production was measured as NBT reducing activity as described previously (Ostrem V. K et al. Proc Natl Acad Sci USA 84: 2610-2614, 1987). HL-60 cells at 1×10^6/ml were mixed with an equal volume of freshly prepared solution of phorbol 12-myristate 13-acetate (200 ng/ml) and […] and incubated for 30 min at 37° C. The percentage of cells containing black formazan deposits was determined using a hemacytometer.

MCF-7 cells = test: MCF-7 cell proliferation ([3H]thymidine incorporation); assay type: cell-based; conditions: for antiproliferative effect (in words): MCF-7 cells; for IN VITRO STUDIES MCF-7: antiproliferative action, percentage activity vs 1α,25(OH)2D3 (=100%)
Protocol: To evaluate the effect of on cell proliferation, malignant MCF-7 cells were cultured in DMEM/nut. mix. […] Cultures were maintained at 37° C. in a humidified atmosphere of 5% CO2 in air. MCF-7 cells were seeded at 5×10^3 cells/well in the above described medium in 96-well microtiter plates in a final volume of 0.2 ml per well. Triplicate cultures were performed. […] Then, 1 μCi [^3H]thymidine was added to each well and cells were harvested after 4 h incubation with a Packard harvester and measured by the Packard Topcount System (Packard, Meriden, USA).

SMILES: CCC1C(O)CC(=CC=C2CCCC3(C)C2CCC3C(C)CCCC(C)(C)O)CC1O (stereo not drawn) [Compound 109, 2β-ethyl-19-nor-1α,25(OH)2D3]
- AFFINITY STUDIES VDR (vitamin D receptor): 40%
- IN VIVO STUDIES Osteocalcin serum [1]: 0.8%
- further reduction of calcemic activity by the 2β counterpart ([1]; mouse, in vivo): 16 fold
- IN VIVO STUDIES Calcium serum ([1]; mouse, in vivo, ip): 0.4%
- IN VIVO STUDIES Calcium urine ([1]; mouse, in vivo, ip): 0.8%
- AFFINITY STUDIES DBP (hDBP): 9%
- prodifferentiating effect (in words) (HL-60 cells): less active than 1α,25(OH)2D3
- IN VITRO STUDIES HL 60 (HL-60 cells): 10%
- antiproliferative effect (in words) (MCF-7 cells): less active than 1α,25(OH)2D3
- IN VITRO STUDIES MCF-7 (MCF-7 cells): 90%

SMILES: CCC1C(O)CC(=CC=C2CCCC3(C)C2CCC3C(C)CCCC(C)(C)O)CC1O (stereo not drawn) [Compound 110, 2α-ethyl-19-nor-1α,25(OH)2D3]
- AFFINITY STUDIES VDR (vitamin D receptor): 90%
- IN VIVO STUDIES Osteocalcin serum [1]: 13%
- IN VIVO STUDIES Calcium serum ([1]; mouse, in vivo, ip): 13%
- IN VIVO STUDIES Calcium urine ([1]; mouse, in vivo, ip): 13%
- AFFINITY STUDIES DBP (hDBP): 20%
- prodifferentiating effect (in words) (HL-60 cells): very potent
- IN VITRO STUDIES HL 60 (HL-60 cells): 200%
- antiproliferative effect (in words) (MCF-7 cells): very potent
- IN VITRO STUDIES MCF-7 (MCF-7 cells): 650%
- times more potent than 1α,25(OH)2D3 in vitro (MCF-7 cells; range over HL 60 differentiation and MCF-7 proliferation, test not specified): 2 to 6 times

SMILES: CCC1C(O)CC(=CC=C2CCCC3(C)C2CCC3C(C)CC#CC(C)(C)O)CC1O (stereo not drawn) [Compound 111, 2β-ethyl-19-nor-23-yne-1α,25(OH)2D3]
- AFFINITY STUDIES VDR (vitamin D receptor): 9%
- IN VIVO STUDIES Osteocalcin serum [1]: 0.8%
- IN VIVO STUDIES Calcium serum ([1]; mouse, in vivo, ip): 0.4%
- IN VIVO STUDIES Calcium urine ([1]; mouse, in vivo, ip): 0.8%
- Serum calcium in mice ([1]; mouse, in vivo, ip): 0.4%
- AFFINITY STUDIES DBP (hDBP): 0.5%
- IN VITRO STUDIES HL 60 (HL-60 cells): 80%
- IN VITRO STUDIES MCF-7 (MCF-7 cells): 700%
- Antiproliferative activity on MCF-7 cells (MCF-7 cells; percentage activity (at 50% of the dose response) vs 1α,25(OH)2D3 (=100%)): 700%

SMILES: CCC1C(O)CC(=CC=C2CCCC3(C)C2CCC3C(C)CC#CC(C)(C)O)CC1O (stereo not drawn) [Compound 112, 2α-ethyl-19-nor-23-yne-1α,25(OH)2D3]
- AFFINITY STUDIES VDR (vitamin D receptor): 55%
- IN VIVO STUDIES Osteocalcin serum [1]: 3%
- IN VIVO STUDIES Calcium serum ([1]; mouse, in vivo, ip): 1.6%
- IN VIVO STUDIES Calcium urine ([1]; mouse, in vivo, ip): 0.8%
- AFFINITY STUDIES DBP (hDBP): 0.9%
- prodifferentiating effect (in words) (HL-60 cells): very potent
- IN VITRO STUDIES HL 60 (HL-60 cells): 300%
- antiproliferative effect (in words) (MCF-7 cells): very potent
- IN VITRO STUDIES MCF-7 (MCF-7 cells): 2000%
- enhancement of antiproliferative effects on MCF-7 cells on introduction of the 23-yne side chain (MCF-7 cells; compared with 2α-ethyl-19-nor-1α,25(OH)2D3 (110)): 3 fold

SMILES: CCC1C(O)CC(=CC=C2CCCC3(C)C2CCC3C(C)CCCC(C)(C)O)CC1O (centres unmarked) [Compound 113]
- AFFINITY STUDIES VDR (vitamin D receptor): 8%
- IN VIVO STUDIES Osteocalcin serum [1]: 0.4%
- IN VIVO STUDIES Calcium serum ([1]; mouse, in vivo, ip): 0.4%
- IN VIVO STUDIES Calcium urine ([1]; mouse, in vivo, ip): 0.4%
- AFFINITY STUDIES DBP (hDBP): 3%
- IN VITRO STUDIES HL 60 (HL-60 cells): 10%
- IN VITRO STUDIES MCF-7 (MCF-7 cells): 75%

SMILES: CCC1C(O)CC(=CC=C2CCCC3(C)C2CCC3C(C)CCCC(C)(C)O)CC1O (stereo not drawn) [Compound 114, 2α-ethyl-14-epi-19-nor-1α,25(OH)2D3]
- AFFINITY STUDIES VDR (vitamin D receptor): 30%
- IN VIVO STUDIES Osteocalcin serum [1]: 1%
- IN VIVO STUDIES Calcium serum ([1]; mouse, in vivo, ip): 1%
- IN VIVO STUDIES Calcium urine ([1]; mouse, in vivo, ip): 1%
- AFFINITY STUDIES DBP (hDBP): 40%
- IN VITRO STUDIES HL 60 (HL-60 cells): 80%
- IN VITRO STUDIES MCF-7 (MCF-7 cells): 150%

From US20060189576A1, “Substituted vitamin d analogues and their therapeutic uses” (priority 2003, published 2006)
